One molecule from patent US10111822B2, “External dermal composition for anti-ageing and method for producing the same” (Hayashibara Co., Ltd., priority 2012, dated 2018) can be followed below.

One test deals with Filaggrin. Kind of test: Expression of proliferation marker protein filaggrin in NHEK cells (Western). The class given is cell-based, human. Particulars: 5 days, control regarded as 50%. The protocol: Normal human epidermal keratinocytes from neonatal foreskin (NHEK cells) were prepared into 2.5×10^5 cells/mL with EpiLife medium, inoculated to 12-well plates in a volume of 1 mL/well, and cultured at 37° C. for one day under a 5% v/v CO2 condition. Thereafter, each supernatant was removed, and a medium, to which ascorbic acid 2-glucoside had been added to give a final concentration of 300 or 600 μM, was added to the resulting cells in a volume of 1 mL/well, followed by culturing the cells at 37° C. for two days under a 5% v/v CO2 condition. Another cell culture system, which had been similarly cultured in a medium free of ascorbic acid 2-glucoside, was provided as a control. The cells cultured with ascorbic acid 2-glucoside were further added with a medium supplemented with the same concentration of sodium salt of ascorbic acid 2-glucoside as that in the above medium in a volume of 1 mL/well, and cultured for another three days under the same conditions. […] Each of the resulting extract was centrifuged to collect a supernatant, and a part of which was subjected to protein quantification. […]

For the next test, the system named is hyaluronic acid. Kind of test: Hyaluronic acid production in NHEK cells (ELISA). The class given is cell-based, human. Particulars: 3 days, control 1003 ± 111.6. From the text:
In accordance with “Evaluation Method for Enhancing Hyaluronic acid Synthesis” disclosed in “Evaluation and Experimental Manual for Humectancy, Skin whitening, Anti-wrinkle, and Anti-oxidation”, edited by Hitoshi Masaki, published by Fragrance Journal, pp. 94 to 97, 2012, NHEK cells as a model for typical normal human epidermal cells were suspended in EpiLife medium (pH 7.4), commercialized by Invitrogen Corporation, Calif., USA, inoculated to 12-well microplates at a cell density of 5×10^4 cells/well, and incubated overnight under conditions of 37° C. and 5% v/v CO2. Thereafter, the cell culture medium was replaced with a fresh HuMedia-KG2 medium commercialized by Kurabo Industries Ltd., Osaka, Japan; and “AA2G”, a particulate composition containing anhydrous crystalline ascorbic acid 2-glucoside, commercialized by Hayashibara Co., Ltd., Okayama, Japan, was added to each well to give a final concentration of 0.25, 0.5, or 1 mM, followed by culturing the cells for three days under the conditions of 37° C. and 5% v/v CO2. After completion of the culture, the supernatant in each well was immediately collected and quantified for hyaluronic acid by “Hyaluronan, DuoSet Kit”, product code: DY3614, a product name of a commercialized enzyme-linked immunosorbent assay (ELISA) purchased from R & D Systems, Minneapolis, USA. As a control, there was provided a culture system, where cells are cultured similarly as above except for not adding ascorbic acid 2-glucoside.
In general terms: In an ELISA, binding on a coated surface is turned into a signal by an enzyme label.

Consider `O=C1O[C@H]([C@@H](O)CO)C(O)=C1O[C@H]1O[C@H](CO)[C@@H](O)[C@H](O)[C@H]1O` [ascorbic acid 2-glucoside, 2-O-α-D-glucosyl-L-ascorbic acid], for which the entries for the “Relative expression level, Filaggrin” value with Filaggrin (300 μM) and in the test on Filaggrin (600 μM) were 65% and 71%, respectively. For the same molecule, the results for the “Hyaluronic acid concentration in culture supernatant” value in the test on hyaluronic acid (0.25 mM), in the test on hyaluronic acid (0.5 mM) and in the test with hyaluronic acid (1 mM) were 1222 ± 93.6 ng/mL, 1268 ± 125.2 ng/mL and 1436 ± 216 ng/mL, respectively.
